Data from US12486267B2, “Imidazo[1,2-A]pyridine and [1,2,4]triazolo[1,5-A]pyridine derivatives as TLR9 inhibitors for the treatment of fibrosis” (BRISTOL-MYERS SQUIBB COMPANY, priority 2020, dated 2025).

Key:
Type in all cases: cell-based
human TLR8 = molecular target: T1, human TLR8 (Homo sapiens, UniProt Q9NR97); assay: TLR8 inhibition reporter assay (HEK-Blue cells, SEAP reporter); conditions: HEK-Blue cells overexpressing human TLR8; stimulated with R848 15.9 μM; 22 hour incubation; SEAP readout
T1 sequence (Q9NR97 27-1041): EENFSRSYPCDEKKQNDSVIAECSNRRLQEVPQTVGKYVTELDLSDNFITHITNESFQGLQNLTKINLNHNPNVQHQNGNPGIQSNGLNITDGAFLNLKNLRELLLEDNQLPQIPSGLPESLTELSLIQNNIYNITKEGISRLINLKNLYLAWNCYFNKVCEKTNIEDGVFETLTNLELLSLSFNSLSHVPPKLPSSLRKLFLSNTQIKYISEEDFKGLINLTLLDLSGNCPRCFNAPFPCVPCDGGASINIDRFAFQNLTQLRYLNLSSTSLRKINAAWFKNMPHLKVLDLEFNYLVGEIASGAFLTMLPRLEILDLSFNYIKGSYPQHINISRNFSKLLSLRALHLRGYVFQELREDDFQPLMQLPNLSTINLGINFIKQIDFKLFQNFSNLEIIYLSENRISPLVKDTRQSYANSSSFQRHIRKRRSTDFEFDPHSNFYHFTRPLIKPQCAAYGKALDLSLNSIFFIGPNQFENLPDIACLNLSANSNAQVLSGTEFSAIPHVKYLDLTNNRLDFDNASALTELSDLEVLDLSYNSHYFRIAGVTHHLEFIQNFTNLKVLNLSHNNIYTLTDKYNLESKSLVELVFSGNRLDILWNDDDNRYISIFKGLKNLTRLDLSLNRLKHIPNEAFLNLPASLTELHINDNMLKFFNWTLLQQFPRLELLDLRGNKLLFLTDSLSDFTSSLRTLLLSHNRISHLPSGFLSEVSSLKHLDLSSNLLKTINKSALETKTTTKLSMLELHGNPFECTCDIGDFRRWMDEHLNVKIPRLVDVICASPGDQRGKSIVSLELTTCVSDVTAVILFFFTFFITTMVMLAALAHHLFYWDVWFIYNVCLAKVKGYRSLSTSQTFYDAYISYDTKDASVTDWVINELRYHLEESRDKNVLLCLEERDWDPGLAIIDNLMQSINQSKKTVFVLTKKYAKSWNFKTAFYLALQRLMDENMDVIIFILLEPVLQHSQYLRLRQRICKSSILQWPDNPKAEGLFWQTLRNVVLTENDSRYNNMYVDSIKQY
In short: (§1)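 HEK-Blue cells with an NF-κB/AP-1-driven SEAP reporter were pre-treated 30 min at room temperature with compound (0.05 nM–50 μM), then stimulated with gardiquimod 7.5 μM (TLR7), R848 15.9 μM (TLR8) or ODN2006 5 nM (TLR9). After 22 h at 37 °C, SEAP was read; % inhibition was referenced to agonist+DMSO and known-inhibitor wells.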

human TLR7 = molecular target: T2, human TLR7 (Homo sapiens, UniProt Q9NYK1); assay: TLR7 inhibition reporter assay (HEK-Blue cells, SEAP reporter); conditions: HEK-Blue cells overexpressing human TLR7; stimulated with gardiquimod 7.5 μM; 22 hour incubation; SEAP readout
T2 sequence (Q9NYK1 27-1049): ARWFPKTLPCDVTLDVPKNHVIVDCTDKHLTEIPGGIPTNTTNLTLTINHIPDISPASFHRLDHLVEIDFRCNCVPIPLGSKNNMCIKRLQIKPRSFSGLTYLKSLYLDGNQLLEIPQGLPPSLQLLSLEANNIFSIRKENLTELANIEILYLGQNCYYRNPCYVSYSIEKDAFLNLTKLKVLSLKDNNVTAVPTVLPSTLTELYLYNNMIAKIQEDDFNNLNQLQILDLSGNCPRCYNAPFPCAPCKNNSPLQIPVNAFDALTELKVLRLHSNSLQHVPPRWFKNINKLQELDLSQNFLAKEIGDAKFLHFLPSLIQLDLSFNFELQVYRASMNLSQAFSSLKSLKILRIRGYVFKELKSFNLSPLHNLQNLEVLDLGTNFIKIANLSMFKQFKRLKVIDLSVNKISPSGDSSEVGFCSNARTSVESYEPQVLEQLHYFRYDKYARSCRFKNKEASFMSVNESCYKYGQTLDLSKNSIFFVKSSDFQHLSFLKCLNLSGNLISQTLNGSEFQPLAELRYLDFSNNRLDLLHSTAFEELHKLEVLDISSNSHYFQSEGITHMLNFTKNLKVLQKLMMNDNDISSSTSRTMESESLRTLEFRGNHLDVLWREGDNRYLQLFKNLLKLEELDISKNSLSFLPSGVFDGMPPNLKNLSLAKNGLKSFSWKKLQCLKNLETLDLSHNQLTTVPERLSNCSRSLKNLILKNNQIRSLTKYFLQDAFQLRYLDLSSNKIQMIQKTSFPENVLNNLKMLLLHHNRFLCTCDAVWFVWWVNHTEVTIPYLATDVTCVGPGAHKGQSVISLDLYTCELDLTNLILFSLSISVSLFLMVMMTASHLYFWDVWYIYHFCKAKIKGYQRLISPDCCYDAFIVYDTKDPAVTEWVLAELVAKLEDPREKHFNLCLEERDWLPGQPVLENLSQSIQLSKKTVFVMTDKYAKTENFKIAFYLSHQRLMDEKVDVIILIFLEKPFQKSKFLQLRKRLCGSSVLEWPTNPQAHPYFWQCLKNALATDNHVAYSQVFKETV
In short: as §1

human TLR9 = molecular target: T3, human TLR9 (Homo sapiens, UniProt Q9NR96); assay: TLR9 inhibition reporter assay (HEK-Blue cells, SEAP reporter); conditions: HEK-Blue cells overexpressing human TLR9; stimulated with ODN2006 5 nM; 22 hour incubation; SEAP readout
T3 sequence (Q9NR96 26-1032): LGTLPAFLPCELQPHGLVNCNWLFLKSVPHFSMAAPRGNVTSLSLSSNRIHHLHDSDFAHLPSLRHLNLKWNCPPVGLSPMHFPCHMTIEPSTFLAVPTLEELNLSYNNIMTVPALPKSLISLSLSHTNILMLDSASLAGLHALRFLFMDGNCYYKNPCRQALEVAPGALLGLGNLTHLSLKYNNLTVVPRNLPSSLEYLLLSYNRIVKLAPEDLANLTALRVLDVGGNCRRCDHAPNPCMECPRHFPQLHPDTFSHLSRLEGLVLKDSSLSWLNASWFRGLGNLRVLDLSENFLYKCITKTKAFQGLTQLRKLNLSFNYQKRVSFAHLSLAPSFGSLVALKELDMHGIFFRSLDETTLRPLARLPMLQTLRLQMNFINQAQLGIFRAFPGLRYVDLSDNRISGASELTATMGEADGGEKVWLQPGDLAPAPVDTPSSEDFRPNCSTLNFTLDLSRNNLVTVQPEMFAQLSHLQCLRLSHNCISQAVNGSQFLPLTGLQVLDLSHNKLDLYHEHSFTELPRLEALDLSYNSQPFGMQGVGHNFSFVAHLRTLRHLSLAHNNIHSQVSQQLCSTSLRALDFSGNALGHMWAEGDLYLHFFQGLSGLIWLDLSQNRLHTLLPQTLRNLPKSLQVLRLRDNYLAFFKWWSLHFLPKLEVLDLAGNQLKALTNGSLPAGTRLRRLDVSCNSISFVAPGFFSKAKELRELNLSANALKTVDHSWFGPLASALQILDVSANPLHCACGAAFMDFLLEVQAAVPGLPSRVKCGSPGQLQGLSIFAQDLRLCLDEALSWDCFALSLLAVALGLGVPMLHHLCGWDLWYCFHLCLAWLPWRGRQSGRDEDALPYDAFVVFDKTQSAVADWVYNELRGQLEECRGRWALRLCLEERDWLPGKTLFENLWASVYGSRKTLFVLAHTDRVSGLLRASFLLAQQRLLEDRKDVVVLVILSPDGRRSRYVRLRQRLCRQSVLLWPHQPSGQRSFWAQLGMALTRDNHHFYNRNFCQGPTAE
In short: as §1

IC50 (human TLR8) [µM] | IC50 (human TLR7) [µM] | IC50 (human TLR9) [µM] | SMILES
16.7 | 18.1 | 0.058 | CC(C)CN1CCC(N2CCC(c3ccc4nc(-c5ccc(S(C)(=O)=O)cc5)cn4c3F)CC2)CC1 [Example 131, 5-fluoro-6-(1′-isobutyl-[1,4′-bipiperidin]-4-yl)-2-(4-(methylsulfonyl)phenyl) imidazo[1,2-a]pyridine]
> 50 | 2.4 | 0.0046 | CS(=O)(=O)c1ccc(-c2cn3cc(C4CCN(C5CCN(C6CCC6)CC5)CC4)cc(F)c3n2)cc1 [Example 110, 6-(1′-cyclobutyl-[1,4′-bipiperidin]-4-yl)-8-fluoro-2-(4-(methylsulfonyl)phenyl) imidazo[1,2-a]pyridine]
> 50 | 5.1 | 0.451 | Cc1cc(-c2ccc(N3CCN(C4CCOCC4)CC3)cc2)cn2cc(-c3ccc(S(C)(=O)=O)cc3)nc12 [Example 104, 8-methyl-2-(4-(methylsulfonyl)phenyl)-6-(4-(4-(tetrahydro-2H-pyran-4-yl)piperazin-1-yl)phenyl)imidazo[1,2-a]pyridine]
> 50 | 3.4 | 0.026 | CC(C)N1C2CCC1CC(N1CCC(c3cc(F)c4nc(-c5ccc(S(C)(=O)=O)cc5)cn4c3)CC1)C2 (single isomer, unassigned) [Example 69, 8-fluoro-6-(1-(8-isopropyl-8-azabicyclo[3.2.1]octan-3-yl)piperidin-4-yl)-2-(4-(methylsulfonyl)phenyl)imidazo[1,2-a]pyridine]
> 25 | 8.6 | 0.108 | COc1ccc(-c2cn3c(n2)CC[C@@H](C2CCN(C4CC5CCC(C4)N5CC(C)C)CC2)C3)cc1OC (single isomer, unassigned) [Example 78]
> 50 | 29.5 | 0.313 | CS(=O)(=O)c1ccc(-c2cn3cc(C4CCN(C5CCN(C6CC6)CC5)CC4)cc(F)c3n2)cc1 [Example 108, 6-(1′-cyclopropyl-[1,4′-bipiperidin]-4-yl)-8-fluoro-2-(4-(methylsulfonyl)phenyl) imidazo[1,2-a]pyridine]
> 50 | > 50 | 0.161 | COc1ccc(-c2cn3c(n2)CCC(C2CCN(C4CCN(C(=O)C(C)C)CC4)CC2)C3)cc1OC (single isomer, unassigned) [Example 41, 1-(4-(2-(3,4-dimethoxyphenyl)-5,6,7,8-tetrahydroimidazo[1,2-a]pyridin-6-yl)-[1,4′-bipiperidin]-1′-yl)-2-methylpropan-1-one]
> 50 | 9.2 | 0.021 | CC(C)CN1C2CCC1CC(N1CCC([C@@H]3CCc4nc(-c5ccc(S(C)(=O)=O)cc5)cn4C3)CC1)C2 (single isomer, unassigned) [Example 82]
> 50 | > 50 | 0.068 | COc1ccc(-c2cn3cc(C4CCN(C5CC6(C5)CN(C5CCC5)C6)CC4)cc(C)c3n2)cc1OC [Example 14, 6-(1-(2-cyclobutyl-2-azaspiro[3.3]heptan-6-yl)piperidin-4-yl)-2-(3,4-dimethoxyphenyl)-8-methylimidazo[1,2-a]pyridine]
> 50 | > 50 | 0.381 | CS(=O)(=O)c1ccc(-c2cn3c(n2)CC[C@H](C2CCN(C4CC5CCC(C4)N5CC4CC4)CC2)C3)cc1 (single isomer, unassigned) [Example 138]
16.7 | 16.7 | 0.171 | CC(C)CN1C2CCC1CC(N1CCC([C@H]3CCc4nc(-c5ccc(S(C)(=O)=O)cc5)cn4C3)CC1)C2 (single isomer, unassigned) [Example 79]
> 25 | 3.5 | 0.05 | Cc1cc(C2CCN(C3CCN(CC4CC4)CC3)CC2)cn2cc(-c3ccc(S(C)(=O)=O)cc3)nc12 [Example 92, 6-(1′-(cyclopropylmethyl)-[1,4′-bipiperidin]-4-yl)-8-methyl-2-(4-(methylsulfonyl)phenyl)imidazo[1,2-a]pyridine]
